Experimental data reported in patent publication US8058437B2, “(Pyrroloquinoxalinyl) pyrazinecarbohydrazide-oxalic acid co-crystal for treatment of cancer and other diseases” (Novelix Pharmaceuticals, Inc., priority 2008, dated 2011).

What was measured:
[1] = tested on: human cancer cell lines (NCI60); test: Treatment of human cancer cell lines with NVX-412 (NCI screening procedure, SRB staining); assay type: cell-based
Protocol: Treatment of various cancer cell lines with NVX-412. Over 60 human cancer cell lines were treated with NVX-412 according to procedures detailed by the National Cancer Institute Developmental Therapeutics Program (see dtp.nci.nih.gov/branches/btb/ivclsp.html) and Shoemaker R H (Nat. Rev. Cancer, 6, 813-823, (2006)) and references cited therein. Many of the cell lines tested are available from the American Type Culture Collection (Rockville, Md., USA). The melanoma cell line 518A2 has been described previously (Jansen et al., “Activated N-Ras Contributes to the Chemoresistance of Human Melanoma in Severe Combined Immunodeficiency (SCID) Mice by Blocking Apoptosis,” Cancer Research 57, 362-65 (1997)). A typical screening of cancer cell treatment by NVX-412 employed the following procedure.
The human tumor cell lines of the cancer screening panel were grown in RPMI 1640 medium containing 5% fetal bovine serum and 2 mM L-glutamine. For a typical screening experiment, cells were inoculated into 96 well microtiter plates in 100 μL at plating densities ranging from 5,000 to 40,000 cells/well depending on the doubling time of individual cell lines. After cell inoculation, the microtiter plates were incubated at 37° C. in 5% CO2/95% air at 100% relative humidity for 24 hours prior to the addition of NVX-412. […]
Following the addition of NVX-412, the plates were incubated for an additional 48 hours at 37° C. in 5% CO2/95% air at 100% relative humidity. […] Bound stain was subsequently solubilized with 10 mM trizma base, and the absorbance was read on an automated plate reader at a wavelength of 515 nm. […] Using the seven absorbance measurements [time zero (Tz), control growth (C), and test growth in the presence of NVX-412 at the five concentration levels (Ti)], the percentage growth was calculated at each of the NVX-412 concentration levels. Percentage growth inhibition was calculated as: [(Ti−Tz)/(C−Tz)]*100 for concentrations for which Ti≧Tz [(Ti−Tz)/Tz]*100 for concentrations for which Ti<Tz.
Three dose response parameters were calculated. […]

[2] = tested on: TC71luc Ewing tumor cell line; test: Ewing's sarcoma cell viability by luminescence, TC71luc; assay type: cell-based, human; conditions: 72 hours
Protocol: (§1) Treatment of Ewing's sarcoma with NVX-412. The TC71luc and TC32luc Ewing tumor cell lines stably express the luciferase gene. Cells were seeded into 96-well plates 24 hours before treating with the active compound to allow attachment. Cells were treated with NVX-412 for 72 hours. Serial dilutions of NVX-412 were prepared in medium from a 10 μM stock solution in DMSO. […] After 72 hours, cell viability was measured by luminescence using a Saphire2 plate reader.

[3] = tested on: TC32luc Ewing tumor cell line; test: Ewing's sarcoma cell viability by luminescence, TC32luc; assay type: cell-based, human; conditions: 72 hours
Protocol: as §1

O=C(NNc1nc2cc(F)ccc2n2cccc12)c1cnccn1.O=C(O)C(=O)O [NVX-412, N′-(7-fluoropyrrolo[1,2a]quinoxalin-4-yl)pyrazine-2-carbohydrazide oxalic acid co-crystal]
GI50 ([1]; almost all cell lines tested, 48 hours incubation): nanomolar range | inhibition of tumor cell growth ([1]; cancer cell lines tested, summary): pronounced inhibition of tumor cell growth | effectiveness against cancer cell lines ([1]; sarcoma, melanoma, and CNS cancer cell lines, summary): very effective | fraction of cells remaining after three days, mean ([2]; TC71, NVX-412 5 nM): 1.00 | fraction of cells remaining after three days, mean ([2]; TC71, NVX-412 10 nM): 0.97 | fraction of cells remaining after three days, mean ([2]; TC71, NVX-412 25 nM): 0.95 | fraction of cells remaining after three days, mean ([2]; TC71, NVX-412 50 nM): 0.92 | fraction of cells remaining after three days, mean ([2]; TC71, NVX-412 75 nM): 0.76 | fraction of cells remaining after three days, mean ([2]; TC71, NVX-412 100 nM): 0.50 | fraction of cells remaining after three days, mean ([2]; TC71, NVX-412 150 nM): 0.21 | fraction of cells remaining after three days, mean ([2]; TC71, NVX-412 200 nM): 0.08 | fraction of cells remaining after three days, mean ([2]; TC71, NVX-412 375 nM): 0.01 | fraction of cells remaining after three days, mean ([3]; TC32, NVX-412 5 nM): 1.03 | fraction of cells remaining after three days, mean ([3]; TC32, NVX-412 10 nM): 0.96 | fraction of cells remaining after three days, mean ([3]; TC32, NVX-412 25 nM): 0.95 | fraction of cells remaining after three days, mean ([3]; TC32, NVX-412 50 nM): 0.91 | fraction of cells remaining after three days, mean ([3]; TC32, NVX-412 75 nM): 0.69 | fraction of cells remaining after three days, mean ([3]; TC32, NVX-412 100 nM): 0.44 | fraction of cells remaining after three days, mean ([3]; TC32, NVX-412 150 nM): 0.15 | fraction of cells remaining after three days, mean ([3]; TC32, NVX-412 200 nM): 0.06 | fraction of cells remaining after three days, mean ([3]; TC32, NVX-412 375 nM): 0.01
